Reference: article PMC8708689

T1: IRP1 (iron regulatory protein 1) (UniProt P21399 1-889)
T1 sequence: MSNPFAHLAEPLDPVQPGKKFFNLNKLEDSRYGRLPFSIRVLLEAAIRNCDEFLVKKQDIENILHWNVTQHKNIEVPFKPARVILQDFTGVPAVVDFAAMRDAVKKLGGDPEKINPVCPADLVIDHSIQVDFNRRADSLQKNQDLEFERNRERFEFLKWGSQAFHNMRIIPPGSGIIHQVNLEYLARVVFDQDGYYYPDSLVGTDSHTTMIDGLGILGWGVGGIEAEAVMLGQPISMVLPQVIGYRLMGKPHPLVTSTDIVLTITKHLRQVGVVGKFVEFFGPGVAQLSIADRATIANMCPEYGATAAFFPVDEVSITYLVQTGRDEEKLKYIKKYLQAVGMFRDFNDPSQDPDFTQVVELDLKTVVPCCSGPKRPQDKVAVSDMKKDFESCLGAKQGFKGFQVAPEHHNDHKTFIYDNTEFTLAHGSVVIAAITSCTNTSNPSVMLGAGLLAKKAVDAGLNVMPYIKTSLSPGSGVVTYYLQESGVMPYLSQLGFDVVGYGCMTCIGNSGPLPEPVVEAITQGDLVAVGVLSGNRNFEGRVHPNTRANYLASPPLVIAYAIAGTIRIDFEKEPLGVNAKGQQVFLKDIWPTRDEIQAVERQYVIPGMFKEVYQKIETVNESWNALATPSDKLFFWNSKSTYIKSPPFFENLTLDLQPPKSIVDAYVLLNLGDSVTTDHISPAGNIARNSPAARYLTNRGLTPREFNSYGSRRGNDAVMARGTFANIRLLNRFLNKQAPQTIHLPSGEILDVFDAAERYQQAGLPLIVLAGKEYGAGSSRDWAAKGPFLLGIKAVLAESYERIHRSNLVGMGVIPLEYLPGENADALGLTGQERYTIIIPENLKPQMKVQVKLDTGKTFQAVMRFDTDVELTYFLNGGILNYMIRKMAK


Experiments:
[1] = system: APP IRE RNA (RNA, mRNA element) GGUGGCGGCGCGGGCAGAGCAAGGACGCGGCGGAU; test: microscale thermophoresis, labelled IRP1; conditions: 150 mM NaCl; binds IRP1/RNA complex, RNA alone not tested; 2 nM IRP1, 600 nM RNA; 25 mM Tris pH 7.4, 0.1% Prionex
[2] = system: H-ferritin IRE RNA (RNA, mRNA element) GGGGUUUCCUGCUUCAACAGUGCUUGGACGGAACC; test: microscale thermophoresis, labelled IRP1; conditions: 150 mM NaCl; IRP1/RNA complex, RNA alone not tested; 2 nM IRP1, 250 nM RNA; same buffer; Posiphen to 50 µM
[3] = biological target: T1, IRP1 (iron regulatory protein 1); test: MST; no Posiphen; MST: 2 nM labeled IRP1, 25 mM Tris pH 7.4, 150 mM NaCl, 0.1% Prionex, 10 min incubation; temperature not stated; conditions: protein: commercial; hairpin

| Kd [1] | binding [2] | Molecule | Kd [3] |
| --- | --- | --- | --- |
| 3.2 nM | no | CN1CC[C@]2(C)c3cc(OC(=O)Nc4ccccc4)ccc3N(C)[C@H]12 | – |
| – | – | GGGGUUUCCUGCUUCAACAGUGCUUGGACGGAACC (structured_RNA) [H-ferritin IRE RNA (canonical)] | 88.5 nM |
| – | – | GGUGGCGGCGCGGGCAGAGCAAGGACGCGGCGGAU (structured_RNA) [APP IRE RNA (atypical)] | 225 nM |
